Laboratory results from patent US10913744B2, “LRRK2 inhibitors and methods of making and using the same” (Dana-Farber Cancer Institute, Inc., priority 2015, dated 2021).
Where two headings read alike, the source gives them in different places.

Experiments:
SYK = SYK (Homo sapiens (Human), UniProt P43405); assay: Dundee profiling
[1] = molecular target: EGFR (L747-T751del, Sins) (Homo sapiens (Human), UniProt P00533, DEL747-751/INS746S); assay: KinomeScan; type: binding; conditions: 1 uM
LOK = LOK (Homo sapiens (Human), UniProt O94804); assay: KinomeScan; type: binding; conditions: 1 uM
CDK2-Cyclin A = CDK2-Cyclin A (Homo sapiens (Human), UniProt P24941); assay: Dundee profiling
PKMYT1 = PKMYT1 (Homo sapiens (Human), UniProt Q99640); assay: KinomeScan; type: binding; conditions: 1 uM
JNK3 = JNK3 (Homo sapiens (Human), UniProt P53779); assay: KinomeScan; type: binding; conditions: 1 uM
[2] = Pharmacokinetic study in mice; type: in vivo, mouse; conditions: for C0: back extrapolated conc.; for Vd: read-out: Vss
ITK = ITK (Homo sapiens (Human), UniProt Q08881); assay: KinomeScan; type: binding; conditions: 1 uM
PAK2 = PAK2 (Homo sapiens (Human), UniProt Q13177); assay: Dundee profiling
PAK2, sequence (Q13177 whole entry, looked up, species assumed): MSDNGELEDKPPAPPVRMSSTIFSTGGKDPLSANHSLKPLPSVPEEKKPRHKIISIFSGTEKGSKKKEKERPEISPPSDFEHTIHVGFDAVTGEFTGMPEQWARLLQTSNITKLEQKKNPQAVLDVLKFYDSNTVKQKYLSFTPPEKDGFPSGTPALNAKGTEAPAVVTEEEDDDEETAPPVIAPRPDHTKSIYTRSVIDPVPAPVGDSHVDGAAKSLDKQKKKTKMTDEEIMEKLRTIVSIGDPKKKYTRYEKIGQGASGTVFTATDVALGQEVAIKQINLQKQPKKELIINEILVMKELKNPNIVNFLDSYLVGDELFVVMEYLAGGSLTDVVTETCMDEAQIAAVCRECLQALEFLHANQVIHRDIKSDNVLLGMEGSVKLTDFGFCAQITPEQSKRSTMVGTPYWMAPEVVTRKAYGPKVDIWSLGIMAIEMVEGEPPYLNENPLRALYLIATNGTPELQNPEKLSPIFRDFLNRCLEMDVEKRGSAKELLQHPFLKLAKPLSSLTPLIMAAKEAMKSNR

LRRK2 = LRRK2 (Mus musculus (Mouse), UniProt Q5S006); assay: Pharmacodynamic study, LRRK2 Ser910/Ser935 phosphorylation in mouse kidney, spleen and brain; type: in vivo
LRRK2, sequence (Q5S006 whole entry, looked up): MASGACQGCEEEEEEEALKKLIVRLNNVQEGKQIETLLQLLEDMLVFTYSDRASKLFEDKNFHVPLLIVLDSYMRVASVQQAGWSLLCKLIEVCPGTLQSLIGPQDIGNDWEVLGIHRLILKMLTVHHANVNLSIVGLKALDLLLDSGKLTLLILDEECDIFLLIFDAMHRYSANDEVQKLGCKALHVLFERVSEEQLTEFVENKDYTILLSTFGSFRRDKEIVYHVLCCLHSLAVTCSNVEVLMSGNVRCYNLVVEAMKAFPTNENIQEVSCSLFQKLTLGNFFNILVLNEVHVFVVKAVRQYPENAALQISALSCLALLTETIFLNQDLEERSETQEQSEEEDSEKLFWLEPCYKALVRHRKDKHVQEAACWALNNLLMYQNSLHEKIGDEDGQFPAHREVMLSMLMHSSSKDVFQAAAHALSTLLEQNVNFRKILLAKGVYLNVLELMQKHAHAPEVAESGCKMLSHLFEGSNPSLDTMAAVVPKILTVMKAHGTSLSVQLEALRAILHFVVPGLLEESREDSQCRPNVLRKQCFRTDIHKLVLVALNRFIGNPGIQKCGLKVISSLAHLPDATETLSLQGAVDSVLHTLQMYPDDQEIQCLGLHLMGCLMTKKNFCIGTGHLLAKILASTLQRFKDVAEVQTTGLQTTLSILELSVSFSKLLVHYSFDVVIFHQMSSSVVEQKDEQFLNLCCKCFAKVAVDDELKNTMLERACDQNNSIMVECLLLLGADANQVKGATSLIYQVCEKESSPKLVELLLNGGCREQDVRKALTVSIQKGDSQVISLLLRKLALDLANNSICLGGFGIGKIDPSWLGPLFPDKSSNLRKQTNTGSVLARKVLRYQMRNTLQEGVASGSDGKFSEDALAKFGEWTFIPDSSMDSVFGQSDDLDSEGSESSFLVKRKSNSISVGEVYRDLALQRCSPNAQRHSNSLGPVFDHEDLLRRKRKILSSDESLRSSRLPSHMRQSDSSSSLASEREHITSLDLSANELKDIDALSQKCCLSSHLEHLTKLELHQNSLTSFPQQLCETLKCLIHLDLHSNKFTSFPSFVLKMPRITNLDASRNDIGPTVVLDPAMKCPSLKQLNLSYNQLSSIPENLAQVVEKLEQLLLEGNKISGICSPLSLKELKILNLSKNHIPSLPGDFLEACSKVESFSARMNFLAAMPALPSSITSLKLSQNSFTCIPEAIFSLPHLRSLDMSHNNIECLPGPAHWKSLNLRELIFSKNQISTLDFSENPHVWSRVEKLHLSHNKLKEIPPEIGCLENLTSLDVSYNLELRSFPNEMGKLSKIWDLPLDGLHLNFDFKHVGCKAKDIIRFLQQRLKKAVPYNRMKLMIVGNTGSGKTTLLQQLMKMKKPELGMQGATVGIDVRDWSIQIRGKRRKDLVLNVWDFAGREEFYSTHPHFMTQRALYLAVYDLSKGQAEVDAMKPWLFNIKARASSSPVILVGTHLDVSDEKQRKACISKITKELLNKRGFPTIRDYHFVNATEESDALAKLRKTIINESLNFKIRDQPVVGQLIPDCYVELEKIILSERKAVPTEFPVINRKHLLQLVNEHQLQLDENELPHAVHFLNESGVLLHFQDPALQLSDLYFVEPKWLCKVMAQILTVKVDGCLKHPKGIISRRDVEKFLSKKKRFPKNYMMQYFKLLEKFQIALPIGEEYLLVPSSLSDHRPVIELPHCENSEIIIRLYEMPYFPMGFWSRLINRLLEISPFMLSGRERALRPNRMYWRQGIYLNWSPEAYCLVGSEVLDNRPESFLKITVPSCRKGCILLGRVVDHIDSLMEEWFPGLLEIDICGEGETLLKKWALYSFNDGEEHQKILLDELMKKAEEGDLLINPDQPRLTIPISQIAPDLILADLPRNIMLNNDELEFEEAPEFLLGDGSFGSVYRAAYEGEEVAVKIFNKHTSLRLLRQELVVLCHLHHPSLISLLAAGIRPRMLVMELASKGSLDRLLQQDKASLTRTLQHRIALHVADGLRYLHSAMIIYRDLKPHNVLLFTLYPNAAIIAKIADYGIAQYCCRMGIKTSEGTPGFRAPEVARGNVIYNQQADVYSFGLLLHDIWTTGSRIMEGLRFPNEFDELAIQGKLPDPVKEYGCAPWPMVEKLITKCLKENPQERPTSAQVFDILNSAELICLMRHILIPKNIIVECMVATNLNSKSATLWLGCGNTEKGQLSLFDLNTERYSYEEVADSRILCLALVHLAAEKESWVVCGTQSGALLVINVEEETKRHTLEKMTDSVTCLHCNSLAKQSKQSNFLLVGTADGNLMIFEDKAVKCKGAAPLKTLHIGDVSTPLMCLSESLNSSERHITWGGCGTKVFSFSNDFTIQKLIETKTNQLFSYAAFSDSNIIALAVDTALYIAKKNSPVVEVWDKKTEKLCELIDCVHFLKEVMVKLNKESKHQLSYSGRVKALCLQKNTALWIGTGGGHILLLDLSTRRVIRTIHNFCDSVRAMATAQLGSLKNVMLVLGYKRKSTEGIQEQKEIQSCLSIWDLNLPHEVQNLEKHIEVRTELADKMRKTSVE

JAK2 = JAK2 (Homo sapiens (Human), UniProt O60674); assay: Dundee profiling
JAK2, sequence (O60674 whole entry, species assumed): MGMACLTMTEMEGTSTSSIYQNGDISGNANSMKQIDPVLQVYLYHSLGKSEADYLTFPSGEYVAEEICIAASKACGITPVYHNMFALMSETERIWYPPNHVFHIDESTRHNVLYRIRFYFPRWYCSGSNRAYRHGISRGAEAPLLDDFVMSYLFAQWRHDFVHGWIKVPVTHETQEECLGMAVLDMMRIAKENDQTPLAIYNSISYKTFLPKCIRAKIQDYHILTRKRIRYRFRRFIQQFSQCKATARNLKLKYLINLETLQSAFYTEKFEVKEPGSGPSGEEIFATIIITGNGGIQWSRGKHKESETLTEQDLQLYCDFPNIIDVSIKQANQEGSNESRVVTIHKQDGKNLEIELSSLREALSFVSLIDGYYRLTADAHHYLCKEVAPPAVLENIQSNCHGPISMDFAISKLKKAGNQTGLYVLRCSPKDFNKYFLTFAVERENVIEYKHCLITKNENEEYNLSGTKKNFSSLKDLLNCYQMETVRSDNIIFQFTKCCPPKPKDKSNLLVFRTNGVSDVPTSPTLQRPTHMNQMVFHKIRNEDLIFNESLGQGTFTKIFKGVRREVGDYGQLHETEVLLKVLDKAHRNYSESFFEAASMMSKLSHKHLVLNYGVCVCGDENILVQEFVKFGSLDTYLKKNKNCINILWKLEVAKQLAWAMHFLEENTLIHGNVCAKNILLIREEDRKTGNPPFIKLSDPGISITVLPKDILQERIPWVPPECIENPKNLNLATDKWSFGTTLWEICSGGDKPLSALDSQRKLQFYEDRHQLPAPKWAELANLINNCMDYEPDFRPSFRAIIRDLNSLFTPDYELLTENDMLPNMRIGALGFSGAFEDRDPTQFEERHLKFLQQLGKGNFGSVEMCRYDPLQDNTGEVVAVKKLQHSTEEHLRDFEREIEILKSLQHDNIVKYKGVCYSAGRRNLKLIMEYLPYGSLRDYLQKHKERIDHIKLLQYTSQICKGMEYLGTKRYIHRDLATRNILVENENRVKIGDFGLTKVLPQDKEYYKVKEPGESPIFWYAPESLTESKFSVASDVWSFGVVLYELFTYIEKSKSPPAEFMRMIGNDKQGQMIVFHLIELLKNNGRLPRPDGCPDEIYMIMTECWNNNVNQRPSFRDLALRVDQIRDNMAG

FGF-R1 = FGF-R1 (Homo sapiens (Human), UniProt P11362); assay: Dundee profiling
IKKe = IKKe (Homo sapiens (Human), UniProt Q14164); assay: Dundee profiling
IKKe, sequence (Q14164 whole entry, species assumed): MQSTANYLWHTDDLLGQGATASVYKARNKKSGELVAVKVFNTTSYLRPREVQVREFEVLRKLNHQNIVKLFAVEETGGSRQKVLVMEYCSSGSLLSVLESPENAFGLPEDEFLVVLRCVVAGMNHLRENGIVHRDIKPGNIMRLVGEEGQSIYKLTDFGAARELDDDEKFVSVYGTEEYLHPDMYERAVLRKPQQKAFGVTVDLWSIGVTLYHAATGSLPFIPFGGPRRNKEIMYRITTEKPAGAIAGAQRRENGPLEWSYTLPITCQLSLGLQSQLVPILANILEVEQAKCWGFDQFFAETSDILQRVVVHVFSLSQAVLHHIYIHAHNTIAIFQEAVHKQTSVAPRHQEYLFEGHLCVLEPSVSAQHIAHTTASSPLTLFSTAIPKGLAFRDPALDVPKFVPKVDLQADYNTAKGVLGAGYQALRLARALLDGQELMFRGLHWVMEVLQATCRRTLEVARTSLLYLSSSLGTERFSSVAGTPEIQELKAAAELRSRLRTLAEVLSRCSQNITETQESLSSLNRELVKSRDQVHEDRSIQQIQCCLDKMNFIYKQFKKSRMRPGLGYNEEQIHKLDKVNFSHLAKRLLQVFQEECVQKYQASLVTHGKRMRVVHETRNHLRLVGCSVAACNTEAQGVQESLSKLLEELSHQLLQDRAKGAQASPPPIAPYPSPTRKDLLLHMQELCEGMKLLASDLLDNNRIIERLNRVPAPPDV

WNK1 = WNK1 (Homo sapiens (Human), UniProt Q9H4A3); assay: KinomeScan; type: binding; conditions: 1 uM
ZAP70 = ZAP70 (Homo sapiens (Human), UniProt P43403); assay: Dundee profiling
HER4 = HER4 (Homo sapiens (Human), UniProt Q15303); assay: Dundee profiling
[3] = read-out: percent remaining enzymatic activity
[4] = read-out: percent remaining enzymatic activity, I1, 1 μM
[5] = read-out: percent remaining enzymatic activity, I10

CNc1nc(Nc2ccc(C(=O)N3CCOCC3)cc2OC)nc2[nH]cc(Cl)c12 [Compound 18, (4-((5-chloro-4-(methylamino)-7H-pyrrolo[2,3-d]pyrimidin-2-yl)amino)-3-methoxyphenyl)(morpholino)methanone]
percent remaining enzymatic activity (SYK; I10): 81%
remaining activity at 1 µM (SYK; [3]): 91%
KinomeScan value [1]: 84
KinomeScan value (LOK): 100
percent remaining enzymatic activity (CDK2-Cyclin A; I10): 67%
remaining activity at 1 µM (CDK2-Cyclin A; [3]): 102%
KinomeScan value (PKMYT1): 100
KinomeScan value (JNK3): 67
AUClast ([2]; Brain, i.v., 2 mg/kg): 239.31 ng·h/mL
AUClast ([2]; Plasma, i.v., 2 mg/kg): 532.67 ng·h/mL
T1/2 ([2]; Plasma, i.v., 2 mg/kg): 39.6 min
AUClast ([2]; Plasma, p.o., 10 mg/kg): 3094.58 ng·h/mL
Kp ([2]; mouse, brain/plasma, iv, 2 mg/kg i.v., from AUClast, read-out: brain/plasma concentration ratio): 0.45
AUC(0-inf) ([2]; mouse, iv, Brain, 2 mg/kg): 246 ng·h/mL
AUC(0-t) ([2]; mouse, iv, Brain, 2 mg/kg): 239 ng·h/mL
clearance ([2]; mouse, iv, Brain, 2 mg/kg): 135 mL/min/kg
half-life ([2]; mouse, iv, Brain, 2 mg/kg): 13.8 min
C0 ([2]; mouse, iv, Brain, 2 mg/kg): 1340 ng/mL
Vd ([2]; mouse, iv, Brain, i.v., 2 mg/kg): 1.7 L/kg
AUC(0-inf) ([2]; mouse, iv, Plasma, 2 mg/kg): 536 ng·h/mL
AUC(0-t) ([2]; mouse, iv, Plasma, 2 mg/kg): 533 ng·h/mL
clearance ([2]; mouse, iv, Plasma, 2 mg/kg): 62.2 mL/min/kg
half-life ([2]; mouse, iv, Plasma, 2 mg/kg): 39.6 min
C0 ([2]; mouse, iv, Plasma, 2 mg/kg): 1600 ng/mL
Vd ([2]; mouse, iv, Plasma, i.v., 2 mg/kg): 1.73 L/kg
bioavailability ([2]; mouse, oral, Plasma, 10 mg/kg p.o. vs 2 mg/kg i.v., from AUClast, read-out: % F (oral bioavailability)): 116%
AUC(0-inf) ([2]; mouse, po, Brain, 10 mg/kg): 762 ng·h/mL
AUC(0-t) ([2]; mouse, po, Brain, 10 mg/kg): 688 ng·h/mL
Cmax ([2]; mouse, po, Brain, 10 mg/kg): 247 ng/mL
Tmax ([2]; mouse, po, Brain, 10 mg/kg): 60 min
AUC(0-inf) ([2]; mouse, po, Plasma, 10 mg/kg): 3870 ng·h/mL
AUC(0-t) ([2]; mouse, po, Plasma, 10 mg/kg): 3090 ng·h/mL
Cmax ([2]; mouse, po, Plasma, 10 mg/kg): 803 ng/mL
Tmax ([2]; mouse, po, Plasma, 10 mg/kg): 60 min
KinomeScan value (ITK): 88
remaining activity at 1 µM (PAK2; [4]): 110%
remaining activity at 1 µM (PAK2; [5]): 102%
inhibition of LRRK2 Ser935 phosphorylation in brain (LRRK2; 10 mg/kg): only partial inhibition in brain
inhibition of LRRK2 Ser935 phosphorylation in tissues (LRRK2; 30 mg/kg): near complete inhibition in all tissues
dephosphorylation of Ser935 of LRRK2 in kidney, spleen and brain (LRRK2; 100 mg/kg, intraperitoneal): near complete dephosphorylation of Ser935 of LRRK2
percent remaining enzymatic activity (JAK2; I10): 97%
remaining activity at 1 µM (JAK2; [3]): 99%
remaining activity at 1 µM (FGF-R1; [4]): 94%
remaining activity at 1 µM (FGF-R1; [5]): 102%
remaining activity at 1 µM (IKKe; [4]): 114%
remaining activity at 1 µM (IKKe; [5]): 98%
KinomeScan value (WNK1): 95
remaining activity at 1 µM (ZAP70; [4]): 101%
remaining activity at 1 µM (ZAP70; [5]): 85%
remaining activity at 1 µM (HER4; [4]): 94%
remaining activity at 1 µM (HER4; [5]): 71%
